In PubChem BioAssay AID720570 (Broad Institute, 2013):
Activity calls are given as the source filed them.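 Rule for the calls: active = cell-killing curve crosses a set limit at a concentration no more than twice the top valid dose; inconclusive = flat curve with a 30 to 70% loss, or a poor fit; inactive = signal rising instead of falling, and the rest.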

System: not listed separately
Assay: TC71 Ewing sarcoma cell killing, confirmation, luminescence, cherry-picked samples, retest (AID 720570)
Conditions: TC71 Ewing sarcoma viability, CellTiter-Glo ATP, 72 h; at 23.5 µM (top of the series)

Structure (SMILES)	activity change, negative = cytotoxicity
COC(=O)C[C@@H]1CC[C@@H]2[C@H](COc3ccc(NC(=O)c4cccc(F)c4)cc3C(=O)N2C)O1	2.03% (inactive)
COC(=O)C[C@@H]1CC[C@@H]2[C@H](COc3ccc(NC(=O)c4cccc(Cl)c4)cc3C(=O)N2C)O1	2.41% (inactive)

Same assay, conditions: TC71 Ewing sarcoma viability, CellTiter-Glo ATP, 72 h; at 26 µM (top of the series)

Structure (SMILES)	activity change, negative = cytotoxicity
CN(CCO)c1ccc(/C=N/Nc2nncc3ccccc23)cc1	0.119% (inactive)
C[C@H]1CN([C@@H](C)CO)S(=O)(=O)c2ccc(C#Cc3ccncc3)cc2O[C@@H]1CN(C)S(=O)(=O)c1ccccc1	-7.09% (inactive)
COc1ccc(NC(=O)c2cc3ccccc3oc2=O)cc1	7.98% (inactive)
COC(=O)C(CC#Cc1ccc2c(c1)[C@]1(C(=O)N2)[C@H](c2ccc(OCCO)cc2)N2[C@H](c3ccccc3)[C@H](c3ccccc3)OC(=O)[C@H]2[C@@H]1C(=O)N1CCN(c2ncccn2)CC1)C(=O)OC	3.63% (inactive)
O=C(Nc1nc(-c2ccc(F)c(F)c2)cs1)c1ccc(OCC2CCCO2)cc1 (configuration not stated)	1.49% (inactive)
C[C@H](CO)N1C[C@H](C)[C@H](CN(C)CC2CCCCC2)Oc2ccc(NC(=O)Nc3cccc4ccccc34)cc2C1=O	6.42% (inactive)
CO[C@H]1CN(C)C(=O)c2ccc(NC(=O)c3ccc(-c4ccccc4)cc3)cc2OC[C@H](C)NC[C@H]1C	7.36% (inactive)
COc1cc(/C=N/NS(=O)(=O)c2ccc(C)cc2)ccc1OCc1cccc(C(=O)O)c1	-3.76% (inactive)
O=C(C[C@@H]1CC[C@@H]2[C@H](COC[C@@H](O)CN2S(=O)(=O)c2ccc(F)cc2)O1)NCc1ccc(Cl)c(Cl)c1	-10.7% (inactive)
Cc1ccc(C(C(=O)NCc2ccco2)N(C(=O)CNC(=O)c2cccs2)c2c(C)cc(C)cc2C)cc1 (configuration not stated)	-13.1% (inactive)
CCNC(=O)[C@@H]1[C@@H](CO)[C@@H]2Cn3c(ccc(C4=CCCCC4)c3=O)[C@H]1N2CC	8.36% (inactive)
O=C(COC(=O)c1ccc[nH]c1=O)Nc1ccc(N2CCCCC2)cc1	6.54% (inactive)
Nc1ccc2c(c1)OC1(CCCC1)O2	25.1% (inactive)
O=C(CCCN1C(=O)/C(=C/c2ccccc2Cl)SC1=S)NNC(=O)c1ccc(Cl)cc1Cl	-1.95% (inactive)
Cc1csc(NC(=O)CCc2c(C)nc3cc(-c4ccc(Cl)cc4)nn3c2C)n1	10.8% (inactive)
CCc1c(C(=O)NN2C(=O)C3CCCCC3C2=O)csc1C (configuration not stated)	23.1% (inactive)
COc1ccc(/C=C2\SC(=O)N(CCCC(=O)Nc3ccc(C(=O)O)cc3)C2=O)cc1	21.2% (inactive)
Nc1ccc(-c2cc3ccccc3c(=O)o2)cc1	14.9% (inactive)
C/C(=N\Nc1cccc2cccnc12)c1ccccn1	3.52% (inactive)

System: TC71 Ewing sarcoma viability, CellTiter-Glo ATP, 72 h
Assay: as above
Conditions: not given

Structure (SMILES)	AC35
COc1ccccc1NC(=O)N1[C@@H]2CNC[C@H]1[C@@H]2c1ccc(-c2ccc(C#N)cc2)cc1	> 23.5 µM (inactive)
Cc1cc(C(=O)Nc2ccc3c(c2)C(=O)N(C)[C@@H]2CC[C@@H](CC(=O)NCc4ccc(-c5ccccc5)cc4)O[C@H]2CO3)no1	6.73 µM
CC(=O)OC1CC(OC2C(O)CC(OC3C(O)CC(OC4CCC5(C)C(CCC6C5CC(O)C5(C)C(C7=CC(=O)OC7)CCC65O)C4)OC3C)OC2C)OC(C)C1OC1OC(CO)C(O)C(O)C1O (configuration not stated)	0.589 µM
COc1ccc(-c2nc3c(s2)CCc2onc(-c4ccc(OC)cc4)c2-3)cc1	13.3 µM
C[C@H](CO)N1C[C@H](C)[C@H](CN(C)Cc2ccc(C(=O)Nc3ccccc3N)cc2)Oc2ccc(NC(=O)C3CC3)cc2CC1=O	9.49 µM
O=C1c2ccccc2C(=O)N1CCCCNc1ccccc1	5.25 µM
C(=N\Nc1nc2ccccc2s1)/c1ccccn1	3.07 µM
C[C@@H]1CN([C@@H](C)CO)S(=O)(=O)c2ccc(C#CC(C)(C)O)cc2O[C@H]1CN(C)Cc1ccc(-c2ccccc2)cc1	3.55 µM
COc1ccc(Cn2cc3c(-c4ccc(F)cc4)nnc-3c3cc(OC)c(OC)cc32)cc1	13.4 µM
COc1ccc(OC)c(-c2nnc3n2N=C(c2ccc(OC)c(OC4CCCC4)c2)CS3)c1	3.81 µM
C[C@@H]1CN([C@@H](C)CO)C(=O)Cc2cc(NS(=O)(=O)c3cccs3)ccc2O[C@H]1CN(C)Cc1ccc(Cl)c(Cl)c1	12.3 µM
CC1OC(OC2CC(O)C3(CO)C4C(O)CC5(C)C(C6=CC(=O)OC6)CCC5(O)C4CCC3(O)C2)C(O)C(O)C1O (configuration not stated)	0.173 µM
O=C(O)c1ccc(N/N=C/c2ccc3nccnc3c2)cc1	16.3 µM
C=C1C(=O)O[C@@H]2[C@H]1[C@@H](OC(=O)/C(C)=C/C)C/C(C)=C\C(=O)/C=C(\C)[C@@H]2O	9.79 µM
CCCNC(=O)N1[C@H](C#N)[C@H](c2ccc(C#Cc3cccc(F)c3)cc2)[C@H]1CO	16.1 µM
O=c1[nH]c(=O)n([C@H]2C[C@H](O)[C@@H](CO)O2)cc1C(F)(F)F	2.91 µM
O=c1c2ccccc2nc(/C=C/c2cc(Br)ccc2O)n1CCCO	13.8 µM
COc1ccccc1-c1ccc(OCCCN2CCC(C(O)(c3ccccc3)c3ccccc3)CC2)cc1	13.7 µM
CN1c2ccc(-c3ccc(C#N)cc3)cc2[C@H]2[C@H](CCN2S(=O)(=O)c2cccc(F)c2)[C@H]1CO	3.77 µM
COc1ccc(C2=Nn3c(nnc3-c3ccccc3F)SC2)cc1OC1CCOC1 (configuration not stated)	4.93 µM
CC(=NNc1ccc2ccccc2n1)c1ccccn1	1.57 µM

Structure (SMILES)	AC35
Cc1ccc(/C=N/Nc2ccc3ccccc3n2)o1	18.4 µM
CCOc1ccc2nc(NC3=NC(c4ccc(OC)cc4)CC(=O)N3)nc(C)c2c1 (configuration not stated)	20.9 µM
CCc1ccc(/C=C2\SC(=S)N(CCCC(=O)NCCCN3CCOCC3)C2=O)cc1	22.6 µM
Nc1sc(-c2ccccc2)cc1-c1n[nH]c(=S)n1C1CCCCC1	4.99 µM
O=C(O)c1ccc(N/N=C/c2ccc3c(c2)OCO3)cc1	9.45 µM
OCC1OC(n2ccc3c2ncn2ncnc32)C(O)C1O (configuration not stated)	3.83 µM
COc1cccc(O)c1CN1CCC(C(=O)Nc2ccc(-c3cccc(C)c3)cc2)CC1	20.7 µM
Cc1cccc(/C=C(\c2nc3ccccc3[nH]2)S(=O)(=O)c2ccccc2)c1	9.6 µM
COC(=O)C1=C(C)N(Cc2ccccc2C(F)(F)F)C(=NCc2ccc(OC)cc2)NC1c1ccc(C(F)(F)F)cc1 (configuration not stated)	13.5 µM
C[C@@H]1CN([C@@H](C)CO)C(=O)c2cc(NS(=O)(=O)c3ccc(F)cc3)ccc2O[C@@H]1CN(C)Cc1ccc(C(=O)Nc2ccccc2N)cc1	17.5 µM
C[C@H](CO)N1C[C@H](C)[C@@H](CN(C)Cc2ccc(C(F)(F)F)cc2)OCCCC[C@H](C)Oc2ccc(NS(=O)(=O)c3ccc(F)cc3)cc2C1=O	17.3 µM
Cc1ccc(S(=O)(=O)N(C)C[C@@H]2Oc3ccc(NC(=O)CCCCCC(=O)Nc4ccccc4N)cc3CC(=O)N([C@@H](C)CO)C[C@@H]2C)cc1	> 21 µM (inactive)
O=C(c1cccc(S(=O)(=O)NCc2ccccc2)c1)N1CCN(c2ccccc2)CC1	17.6 µM
CCN1C/C(=C/c2ccc(N3CCOCC3)cc2)C(=O)/C(=C/c2ccc(N3CCOCC3)cc2)C1	5.92 µM
O=C(NC(c1ccc(F)cc1)c1ccc2ccccc2n1)C1CCN(Cc2cccc(C(F)(F)F)c2)CC1 (configuration not stated)	11.2 µM
O=C(C[C@@H]1C[C@H]2c3cc(NS(=O)(=O)c4ccc(F)cc4)ccc3O[C@H]2[C@H](CO)O1)NCc1ccc(-c2ccccc2)cc1	1.91 µM
C[C@@H]1CN([C@@H](C)CO)C(=O)Cc2cc(N(C)C)ccc2O[C@H]1CN(C)Cc1ccc(C(=O)Nc2ccccc2N)cc1	13.1 µM
COc1ccc(/C=C/C(=O)c2ccc(C(=O)/C=C/c3ccc(OC)c(OC)c3)cc2)cc1OC	20.4 µM
COc1ccc(-c2cc(CNc3nc(NC(C)C)nc4cc(-c5ccccc5)sc34)on2)cc1	12.1 µM
C(=N\Nc1nc2ccccc2[nH]1)/c1ccccn1	4.84 µM
O=C1NC2C(=CC(O)C(O)C2O)c2cc3c(cc21)OCO3 (configuration not stated)	3.67 µM

Structure (SMILES)	AC35
Cc1nn(Cc2ccccc2Cl)c2sc(C(=O)Nc3ccccc3N3CCOCC3)cc12	13.2 µM
O=C(C[C@H]1C[C@H]2c3cc(NS(=O)(=O)c4ccc(F)cc4)ccc3O[C@H]2[C@H](CO)O1)NCc1ccc(Oc2ccccc2)cc1	10.8 µM
C[C@@H]1CN([C@H](C)CO)S(=O)(=O)c2ccc(C#CC(C)(C)O)cc2O[C@H]1CN(C)Cc1ccc(-c2ccccc2)cc1	3.05 µM
COc1ccc(C2=Nn3c(nnc3-c3ccccc3OC)SC2)cc1OCC1CC1	6.68 µM
CN(C)c1ccc(C=c2c3ccccc3n3c2c2c([n+]3C)CCCC2)cc1	3.96 µM
Cc1cc(C)cc(N2C(=O)NC(=O)/C(=C\C=C\c3ccco3)C2=O)c1	11.3 µM
Cc1ccc(S(=O)(=O)Nc2ccc3c(c2)C(=O)N([C@H](C)CO)C[C@H](C)[C@@H](CN(C)Cc2ccc(C(F)(F)F)cc2)OCCCC[C@H](C)O3)cc1	12.1 µM
CC(C)(C)[S@](=O)N1Cc2cc(C(=O)NCC(F)(F)F)nc(-c3cccc(-c4cccc(F)c4)c3)c2[C@@H]1CCO	16.5 µM
N=c1ccn2c(n1)O[C@H]1[C@H](O)[C@@H](CO)O[C@H]12	3 µM
C[C@@H]1CN([C@H](C)CO)C(=O)c2cccc(N(C)C)c2O[C@@H]1CN(C)Cc1ccc(C(=O)Nc2ccccc2N)cc1	16.4 µM
OCC1OC(n2cnc3c(NCc4ccco4)ncnc32)C(O)C1O (configuration not stated)	7.82 µM
O=C(Nc1cccc(S(=O)(=O)N2CCCC2)c1)c1ccc(Cl)nc1	14 µM
Cc1nc2ncccn2c1-c1csc(Nc2ccc(O)cc2)n1	4.74 µM
C[C@@H]1CN([C@H](C)CO)C(=O)Cc2cc(NC(=O)CCCCCC(=O)Nc3ccccc3N)ccc2O[C@@H]1CN(C)CC1CCCCC1	16.9 µM
Nc1nc(=S)c2[nH]cnc2[nH]1	1.54 µM
COC(=O)C[C@@H]1CC[C@@H]2[C@H](COc3ccc(NC(=O)c4ccc(C(F)(F)F)cc4)cc3C(=O)N2C)O1	9.91 µM
Oc1[nH]c2ccc(Br)cc2c1N=NC(=S)N1CCOCC1	2.87 µM
C[C@@H]1CN([C@@H](C)CO)C(=O)c2cccc(NS(=O)(=O)c3ccc(Cl)cc3)c2O[C@@H]1CN(C)Cc1ccc(C(=O)Nc2ccccc2N)cc1	9.9 µM
COC(=O)C[C@H]1CC[C@@H]2[C@H](COc3ccc(NC(=O)Nc4cccc(Cl)c4)cc3C(=O)N2C)O1	15 µM
